B1: Solute carrier family 15 member 1 (Rattus norvegicus), P51574 (protein)
chain: MGMSKSRGCFGYPLSIFFIVVNEFCERFSYYGMRALLVLYFRNFLGWDDDLSTAIYHTFVALCYLTPILGALIADSWLGKFKTIVSLSIVYTIGQAVISVSSINDLTDHDHDGSPNNLPLHVALSMIGLALIALGTGGIKPCVSAFGGDQFEEGQEKQRNRFFSIFYLAINAGSLLSTIITPILRVQQCGIHSQQACYPLAFGVPAALMAVALIVFVLGSGMYKKFQPQGNIMGKVAKCIRFAIKNRFRHRSKAFPKRNHWLDWAKEKYDERLISQIKIMTKVMFLYIPLPMFWALFDQQGSRWTLQATTMTGKIGTIEIQPDQMQTVNAILIVIMVPIVDAVVYPLIAKCGFNFTSLKKMTVGMFLASMAFVVAAIVQVEIDKTLPVFPSGNQVQIKVLNIGNNDMAVYFPGKNVTVAQMSQTDTFMTFDVDQLTSINVSSPGSPGVTTVAHEFEPGHRHTLLVWGPNLYRVVKDGLNQKPEKGENGIRFVSTLNEMITIKMSGKVYENVTSHSASNYQFFPSGQKDYTINTTEIAPNCSSDFKSSNLDFGSAYTYVIRSRASDGCLEVKEFEDIPPNTVNMALQIPQYFLLTCGEVVFSVTGLEFSYSQAPSNMKSVLQAGWLLTVAIGNIIVLIVAEAGHFDKQWAEYVLFASLLLVVCIIFAIMARFYTYINPAEIEAQFDEDEKKKGVGKENPYSSLEPVSQTNM
B2: Solute carrier family 15 member 2 (Rattus norvegicus), Q63424 (protein)
chain: MNPFQKNESKETLFSPVSTEEMLPRPPSPPKKSPPKIFGSSYPVSIAFIVVNEFCERFSYYGMKAVLTLYFLYFLHWNEDTSTSVYHAFSSLCYFTPILGAAIADSWLGKFKTIIYLSLVYVLGHVFKSLGAIPILGGKMLHTILSLVGLSLIALGTGGIKPCVAAFGGDQFEEEHAEARTRYFSVFYLAINAGSLISTFITPMLRGDVKCFGQDCYALAFGVPGLLMVLALVVFAMGSKMYRKPPPEGNIVAQVIKCIWFALCNRFRNRSGDLPKRQHWLDWAAEKYPKHLIADVKALTRVLFLYIPLPMFWALLDQQGSRWTLQANKMNGDLGFFVLQPDQMQVLNPFLVLIFIPLFDLVIYRLISKCRINFSSLRKMAVGMILACLAFAVAALVETKINGMIHPQPASQEIFLQVLNLADGDVKVTVLGSRNNSLLVESVSSFQNTTHYSKLHLEAKSQDLHFHLKYNSLSVHNDHSVEEKNCYQLLIHQDGESISSMLVKDTGIKPANGMAAIRFINTLHKDLNISLDTDAPLSVGKDYGVSAYRTVLRGKYPAVHCETEDKVFSLDLGQLDFGTTYLFVITNITSQGLQAWKAEDIPVNKLSIAWQLPQYVLVTAAEVMFSVTGLEFSYSQAPSSMKSVLQAAWLLTVAVGNIIVLVVAQFSGLAQWAEFVLFSCLLLVVCLIFSVMAYYYVPLKSEDTREATDKQIPAVQGNMINLETKNTRL

Tests used:
Assay type in all cases: functional, cell-based
[1] = target: T1, Solute carrier family 15 member 2 (Rattus norvegicus, UniProt Q63424); assay: TP_TRANSPORTER: inhibition of Gly-Sar uptake in PEPT2-expressing LLC-PK1 cells
T1 sequence (Q63424 whole entry): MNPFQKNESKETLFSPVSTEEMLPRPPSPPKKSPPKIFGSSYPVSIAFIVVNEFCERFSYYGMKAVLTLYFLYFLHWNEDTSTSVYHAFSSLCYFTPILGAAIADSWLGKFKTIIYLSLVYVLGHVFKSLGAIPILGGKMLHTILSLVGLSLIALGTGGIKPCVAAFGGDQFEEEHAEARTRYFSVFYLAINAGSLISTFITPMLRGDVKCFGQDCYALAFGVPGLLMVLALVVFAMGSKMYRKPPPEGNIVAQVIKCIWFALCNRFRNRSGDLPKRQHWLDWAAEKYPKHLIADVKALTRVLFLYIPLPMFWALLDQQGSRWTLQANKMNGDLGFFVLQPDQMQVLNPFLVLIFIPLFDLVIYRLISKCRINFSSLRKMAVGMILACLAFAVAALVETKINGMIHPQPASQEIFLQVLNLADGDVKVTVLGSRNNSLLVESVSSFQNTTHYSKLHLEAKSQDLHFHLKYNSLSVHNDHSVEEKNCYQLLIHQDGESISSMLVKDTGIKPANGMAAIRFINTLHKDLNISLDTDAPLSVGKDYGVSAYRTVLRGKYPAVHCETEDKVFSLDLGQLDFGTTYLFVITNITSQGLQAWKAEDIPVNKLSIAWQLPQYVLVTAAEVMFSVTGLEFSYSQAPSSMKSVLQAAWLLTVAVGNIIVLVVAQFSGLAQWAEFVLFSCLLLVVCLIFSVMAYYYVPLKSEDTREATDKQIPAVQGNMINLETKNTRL

[2] = target: T2, Solute carrier family 15 member 1 (Rattus norvegicus, UniProt P51574); assay: TP_TRANSPORTER: inhibition of Gly-Sar uptake in PEPT1-expressing LLC-PK1 cells
T2 sequence (P51574 whole entry): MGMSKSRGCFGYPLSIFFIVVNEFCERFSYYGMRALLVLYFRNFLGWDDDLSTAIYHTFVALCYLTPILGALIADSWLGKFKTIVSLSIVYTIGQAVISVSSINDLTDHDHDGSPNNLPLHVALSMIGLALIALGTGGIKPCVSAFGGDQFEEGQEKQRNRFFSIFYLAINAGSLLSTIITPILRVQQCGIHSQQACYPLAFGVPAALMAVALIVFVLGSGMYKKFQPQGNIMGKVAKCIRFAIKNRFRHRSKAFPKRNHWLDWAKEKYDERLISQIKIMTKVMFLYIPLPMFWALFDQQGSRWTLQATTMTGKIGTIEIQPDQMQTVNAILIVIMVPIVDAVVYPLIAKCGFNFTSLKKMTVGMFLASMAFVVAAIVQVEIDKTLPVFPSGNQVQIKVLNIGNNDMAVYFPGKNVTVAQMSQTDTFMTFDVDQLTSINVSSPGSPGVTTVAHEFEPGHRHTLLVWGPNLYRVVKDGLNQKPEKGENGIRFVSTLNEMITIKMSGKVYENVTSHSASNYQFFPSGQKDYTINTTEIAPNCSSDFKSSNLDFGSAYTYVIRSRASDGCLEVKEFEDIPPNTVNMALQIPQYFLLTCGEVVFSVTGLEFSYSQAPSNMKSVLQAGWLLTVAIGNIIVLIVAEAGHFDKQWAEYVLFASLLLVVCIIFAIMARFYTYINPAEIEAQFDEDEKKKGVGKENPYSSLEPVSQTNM

[3] = substrate: CN(CC(=O)O)C(=O)CN; assay: TP_TRANSPORTER: uptake in PEPT1-expressing LLC-PK1 cells
[4] = substrate: CN(CC(=O)O)C(=O)CN; assay: TP_TRANSPORTER: uptake in PEPT2-expressing LLC-PK1 cells

Molecule | Ki [1] | Ki [2] | Km [3] | Km [4]
Nc1nc(/C(=C/CC(=O)O)C(=O)N[C@@H]2C(=O)N3C(C(=O)O)=CCS[C@H]23)cs1 [CEFTIBUTEN] | 1340 µM | 597 µM |  | 
C=CC1=C(C(=O)O)N2C(=O)[C@@H](NC(=O)/C(=N\O)c3csc(N)n3)[C@H]2SC1 [CEFDINIR] | 20100 µM | 11900 µM |  | 
CC1(C)S[C@@H]2[C@H](NC(=O)[C@H](N)c3ccc(O)cc3)C(=O)N2[C@H]1C(=O)O [AMOXICILLIN] | 179 µM | 13000 µM |  | 
C=CC1=C(C(=O)O)N2C(=O)[C@@H](NC(=O)/C(=N\OCC(=O)O)c3csc(N)n3)[C@H]2SC1 [CEFIXIME] | 11900 µM | 6920 µM |  | 
CC1=C(C(=O)O)N2C(=O)[C@@H](NC(=O)[C@H](N)C3=CCC=CC3)[C@H]2SC1 [CEPHRADINE] | 47 µM | 8540 µM |  | 
CC1=C(C(=O)O)N2C(=O)[C@@H](NC(=O)[C@H](N)c3ccccc3)[C@H]2SC1 [CEPHALEXIN ANHYDROUS] | 49 µM | 4500 µM |  | 
CC1=C(C(=O)O)N2C(=O)[C@@H](NC(=O)[C@H](N)c3ccc(O)cc3)[C@H]2SC1 [CEFADROXIL] | 3 µM | 2170 µM |  | 
CC1(C)S[C@@H]2[C@H](NC(=O)[C@H](N)c3ccccc3)C(=O)N2[C@H]1C(=O)O [AMPICILLIN] | 669 µM | 47800 µM |  | 
CC1(C)S[C@@H]2[C@H](NC(=O)C3(N)CCCCC3)C(=O)N2[C@H]1C(=O)O [CYCLACILLIN] | 27 µM | 168 µM |  | 
B1 |  |  | 1100 µM | 
B2 |  |  |  | 110 µM

From ChEMBL document CHEMBL2074442, “Recognition of beta-lactam antibiotics by rat peptide transporters, PEPT1 and PEPT2, in LLC-PK1 cells” (Am J Physiol, 1997)
